# Tested on: tumor cells such as the HT-29 colon carcinoma or LX-1 lung tumor
# Assay: Cytotoxicity, microculture tetrazolium assay (MTT)
# Assay type: cell-based
# Conditions: 48 hours incubation, concentration giving T/C of 50% growth inhibition, cell line not given
# Method: Cytotoxicity was measured using a standard methodology for adherent cell lines, such as the microculture tetrazolium assay (MTT). Details of this assay have been published (Alley, M. C. et al., Cancer Research 48:589-601, 1988). Exponentially growing cultures of tumor cells such as the HT-29 colon carcinoma or LX-1 lung tumor were used to make microtiter plate cultures. Cells were seeded at 5000-20,000 cells per well in 96-well plates (in […] of media), and grown overnight at 37° C. Test compounds were added, in 10-fold dilutions varying from 10^-4 M to 10^-10 M. Cells were then incubated for 48 hours. To determine the number of viable cells in each well, the MTT dye was added ([…] of a 3 mg/mL solution of 3-(4,5-dimethylthiazol-2-yl)-2,5-diphenyltetrazolium bromide in saline). This mixture was incubated at 37° C. for 5 hours, and then […] of 25% SDS, pH 2, was added to each well. After an overnight incubation, the absorbance of each well at 550 nm was read using an ELISA reader. The values for the mean ±SD of data from replicated wells were calculated, using the formula % T/C (% viable cells treated/control). The concentration of test compound which gives a T/C of 50% growth inhibition was designated as the IC50.
row,Molecule,IC50
1,2-(Me2 Val-Val-MeVal-Pro-NH)--C6 H4 --CO--CH3 [IV-1],> 1 µM
2,"CNC(=O)c1ccccc1NC(=O)[C@@H]1CCCN1C(=O)[C@H](C(C)C)N(C)C(=O)[C@@H](NC(=O)[C@H](C(C)C)N(C)C)C(C)C [Compound I-1, 2-(Me2 Val-Val-MeVal-Pro-NH)--C6 H4 C(O)NHCH3]",0.4 µM
3,"CC(C)[C@H](NC(=O)[C@H](C(C)C)N(C)C)C(=O)N(C)[C@H](C(=O)N1CCC[C@H]1C(=O)Nc1ccccc1C(=O)NCc1ccccc1)C(C)C [Compound I-2, 2-(Me2 Val-Val-MeVal-Pro-NH)--C6 H4 C(O)NHCH2 C6 H5]",> 1 µM
4,"CC(C)NC(=O)c1ccccc1NC(=O)[C@@H]1CCCN1C(=O)[C@H](C(C)C)N(C)C(=O)[C@@H](NC(=O)[C@H](C(C)C)N(C)C)C(C)C [Compound I-3, 2-(Me2 Val-Val-MeVal-Pro-NH)--C6 H4 C(O)NHCH(CH3)2]",0.5 µM
5,"CC(C)[C@H](NC(=O)[C@H](C(C)C)N(C)C)C(=O)N(C)[C@H](C(=O)N1CCC[C@H]1C(=O)Nc1ccccc1C(=O)Nc1ccccc1)C(C)C [Compound I-4, 2-(Me2 Val-Val-MeVal-Pro-NH)--C6 H4 C(O)NHC6 H5]",0.4 µM
6,"CC(C)[C@H](NC(=O)[C@H](C(C)C)N(C)C)C(=O)N(C)[C@H](C(=O)N1CCC[C@H]1C(=O)Nc1ccccc1C(=O)Nc1nccs1)C(C)C [Compound I-5, 2-(Me2 Val-Val-MeVal-Pro-NH)--C6 H4 C(O)NH(thiazol-2-yl)]",0.15 µM
7,"CNC(=O)c1cc(OC)c(OC)cc1NC(=O)[C@@H]1CCCN1C(=O)[C@H](C(C)C)N(C)C(=O)[C@@H](NC(=O)[C@H](C(C)C)N(C)C)C(C)C [Compound I-6, 2-(Me2 Val-Val-MeVal-ProNH)-4,5-bis(methoxy)C6 H2 C(O)NHCH3]",0.2 µM
8,"CON(C)C(=O)c1ccccc1NC(=O)[C@@H]1CCCN1C(=O)[C@H](C(C)C)N(C)C(=O)[C@@H](NC(=O)[C@H](C(C)C)N(C)C)C(C)C [Compound I-60, (2)-(Me2 Val-Val-MeVal-Pro-NH)-C6 H4 -CON(CH3) (OCH3)]",0.4 µM
9,"CC(C)[C@H](NC(=O)[C@H](C(C)C)N(C)C)C(=O)N(C)[C@H](C(=O)N1CCC[C@H]1C(=O)Nc1ccccc1C(=O)N1CCC(c2ccccc2)O1)C(C)C (stereo partly drawn) [Compound I-64, 2-(Me2 Val-Val-MeVal-Pro-NH)--C6 H4 --CO--N(--(CH2)2 --CH(C6 H5)O--)]",0.25 µM
10,"CC(C)[C@H](NC(=O)[C@H](C(C)C)N(C)C)C(=O)N(C)[C@H](C(=O)N1CCC[C@H]1C(=O)Nc1ccccc1C(=O)NCCCO)C(C)C [Compound I-86, 2-(Me2 Val-Val-MeVal-Pro-NH)--C6 H4 --CO--NH(--(CH2)3 --OH)]",0.6 µM
11,"CC(C)[C@H](NC(=O)[C@H](C(C)C)N(C)C)C(=O)N(C)[C@H](C(=O)N1CCC[C@H]1C(=O)Nc1ccccc1C(=O)NCCC(O)c1ccccc1)C(C)C (stereo partly drawn) [Compound I-87, 2-(Me2 Val-Val-MeVal-Pro-NH)--C6 H4 C(O)NH((CH2)2 CH(C6 H5)OH)]",0.2 µM
12,"CNC(=O)c1cccc(NC(=O)[C@@H]2CCCN2C(=O)[C@H](C(C)C)N(C)C(=O)[C@@H](NC(=O)[C@H](C(C)C)N(C)C)C(C)C)c1 [II-1, 3-(Me2 Val-Val-MeVal-Pro-NH)--C6 H4 --CO--NHCH3]",> 1 µM
13,"CC(C)[C@H](NC(=O)[C@H](C(C)C)N(C)C)C(=O)N(C)[C@H](C(=O)N1CCC[C@H]1C(=O)Nc1cccc(C(=O)NCc2ccccc2)c1)C(C)C [II-2, 3-(Me2 Val-Val-MeVal-Pro-NH)--C6 H4 --CO--NH CH2 C6 H5]",> 1 µM
14,"CC(C)[C@H](NC(=O)[C@H](C(C)C)N(C)C)C(=O)N(C)[C@H](C(=O)N1CCC[C@H]1C(=O)Nc1ccccc1C(=O)c1ccccc1)C(C)C [IV-15, 2-(Me2 Val-Val-MeVal-Pro-NH)--C6 H4 --CO--C6 H5]",0.07 µM

# Tested on: National Cancer Institute's P388 lymphocytic leukemia (PS system) cell line
# Assay: not given
# Conditions: background statement; cited from earlier work
row,Molecule,inhibition of cell growth
1,Dolastatin 15,markedly inhibits the growth

# Tested on: not given
# Assay: not given
# Conditions: background statement on Dolastatin 15; cited from earlier work
row,Molecule,solubility in aqueous systems
1,Dolastatin 15,poor solubility in aqueous systems

# — patent US5985837A, “Dolastatin 15 derivatives” (BASF Aktiengesellschaft, priority 1998, dated 1999)
